Laboratory results taken from ChEMBL document CHEMBL1201862, “PubChem BioAssay data set” (2004).
Calls of active or inactive are those of the source.

Tests used:
Genome polyprotein = Genome polyprotein (Hepatitis C virus, UniProt Q2Q167); assay: HCV core protein dimerization inhibitors, dose response, biochemical, TR-FRET (AID 2159); design: species or system Hepacivirus hominis;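 note: blocks dimerization of HCV core protein measured by TR-FRET between tagged core106 pairs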
[1] = Counterscreen for IDE inhibitors: Luminescence-based cell-based high throughput dose response assay to identify compounds that are cytotoxic to HEK cells. [Related pubchem assays: 434962 (Primary screen (IDE inhibitors in singlicate)), 449730 (Counterscreen (Cytotoxicity in triplicate)), 435028 (Confirmation (IDE inhibitors in triplicate)) …; assay type: functional; details: HEK293
Insulin-degrading enzyme = Insulin-degrading enzyme (Homo sapiens, UniProt P14735); assay: Dose Response: Fluorescence polarization-based cell-based high throughput dose response assay for inhibitors of insulin-degrading enzyme (IDE). [Related pubchem assays: 434962 (Primary screen (IDE inhibitors in singlicate)), 449730 (Counterscreen (Cytotoxicity in triplicate)), 435028 (Confirmation (IDE inhibitors in triplicate)), 434984 (Summary …; assay type: functional
Insulin-degrading enzyme, sequence (P14735 whole entry): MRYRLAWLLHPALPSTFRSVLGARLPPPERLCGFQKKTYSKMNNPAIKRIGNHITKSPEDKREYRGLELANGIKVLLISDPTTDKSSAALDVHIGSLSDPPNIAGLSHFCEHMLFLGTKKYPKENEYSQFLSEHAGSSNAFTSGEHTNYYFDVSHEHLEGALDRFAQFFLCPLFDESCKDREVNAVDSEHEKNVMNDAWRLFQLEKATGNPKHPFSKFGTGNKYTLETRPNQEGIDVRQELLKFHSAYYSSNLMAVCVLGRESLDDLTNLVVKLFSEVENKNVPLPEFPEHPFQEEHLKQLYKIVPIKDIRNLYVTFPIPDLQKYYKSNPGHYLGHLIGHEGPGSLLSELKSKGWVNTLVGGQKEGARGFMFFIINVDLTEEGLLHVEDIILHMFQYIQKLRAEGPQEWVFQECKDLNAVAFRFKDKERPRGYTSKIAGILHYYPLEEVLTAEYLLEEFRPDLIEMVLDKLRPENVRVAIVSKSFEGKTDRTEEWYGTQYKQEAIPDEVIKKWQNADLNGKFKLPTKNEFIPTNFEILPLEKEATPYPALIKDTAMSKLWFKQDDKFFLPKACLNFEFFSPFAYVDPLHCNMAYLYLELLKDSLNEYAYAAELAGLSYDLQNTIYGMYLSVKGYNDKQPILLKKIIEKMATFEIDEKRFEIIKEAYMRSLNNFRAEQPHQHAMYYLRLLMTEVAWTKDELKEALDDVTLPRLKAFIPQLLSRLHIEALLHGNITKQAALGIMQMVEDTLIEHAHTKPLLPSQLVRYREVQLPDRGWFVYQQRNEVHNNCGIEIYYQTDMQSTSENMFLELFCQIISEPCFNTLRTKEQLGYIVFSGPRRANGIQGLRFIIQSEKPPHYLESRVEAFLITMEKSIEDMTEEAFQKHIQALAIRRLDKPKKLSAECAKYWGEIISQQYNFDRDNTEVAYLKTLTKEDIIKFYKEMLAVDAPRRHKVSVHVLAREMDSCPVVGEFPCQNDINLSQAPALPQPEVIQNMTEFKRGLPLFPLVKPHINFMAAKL

[2] = molecular target: Induced myeloid leukemia cell differentiation protein Mcl-1 (Homo sapiens, UniProt Q07820); assay type: functional
Induced myeloid leukemia cell differentiation protein Mcl-1, sequence (Q07820 whole entry): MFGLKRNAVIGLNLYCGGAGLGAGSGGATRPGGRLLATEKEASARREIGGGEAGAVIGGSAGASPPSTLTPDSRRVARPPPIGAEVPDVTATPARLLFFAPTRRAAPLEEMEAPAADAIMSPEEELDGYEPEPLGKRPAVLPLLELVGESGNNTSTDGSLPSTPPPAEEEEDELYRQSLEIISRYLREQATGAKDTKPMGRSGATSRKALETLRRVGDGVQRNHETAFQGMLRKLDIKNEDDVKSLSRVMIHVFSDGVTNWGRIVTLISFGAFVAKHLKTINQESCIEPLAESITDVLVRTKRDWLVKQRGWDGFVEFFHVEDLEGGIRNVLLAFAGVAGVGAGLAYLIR

[3] = molecular target: T1, Small ubiquitin-related modifier 1 (Homo sapiens, UniProt P63165); assay: inhibitors of SUMO1 peptide binding, dose response, biochemical, fluorescence polarization, uHTS hits (AID 624382); assay type: functional; details: read-out: IC50_Mean
T1 sequence (P63165 whole entry): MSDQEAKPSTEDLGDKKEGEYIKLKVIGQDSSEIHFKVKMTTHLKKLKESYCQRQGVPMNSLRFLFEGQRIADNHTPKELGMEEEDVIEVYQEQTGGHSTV

[4] = molecular target: T1, Small ubiquitin-related modifier 1; assay: inhibitors of SUMO1 partner interactions, dose response, biochemical, FRET (AID 624383); assay type: functional; details: read-out: IC50_Mean
HeLa = assay: Cytotoxicity counterscreen assay for transcriptional activators of heat shock protein 70 (Hsp70). [Related pubchem assays: 1203, 1252 ]; assay type: functional; details: Homo sapiens;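 note: cells exposed to compound for 16 hours before readout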
[5] = inhibitors of intracellular T. cruzi replication, confirmation, NIH3T3 host cells, beta-gal luminescence (AID 2044); assay type: functional, cell-based;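 note: intracellular parasites grown in NIH/3T3 mouse fibroblasts as host cells; luminescent beta-galactosidase reporter signal from transgenic T. cruzi replicating inside host cells; inhibitors lower the luminescence signal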
[6] = cytotoxicity toward NIH3T3 fibroblasts, dose response, counter-screen, cell-based, ATP luminescence, mouse fibroblasts (AID 2010); assay type: functional;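 note: cells exposed to compound for about 90 hours before reading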
[7] = molecular target: T2, Microphthalmia-associated transcription factor (Homo sapiens, UniProt O75030); assay: TRPM1 promoter luciferase signal decrease, dose response, MITF inhibitor project, cell-based, SK-MEL-5, cherry-picked, set 3 (AID 493073); assay type: functional
T2 sequence (O75030 whole entry): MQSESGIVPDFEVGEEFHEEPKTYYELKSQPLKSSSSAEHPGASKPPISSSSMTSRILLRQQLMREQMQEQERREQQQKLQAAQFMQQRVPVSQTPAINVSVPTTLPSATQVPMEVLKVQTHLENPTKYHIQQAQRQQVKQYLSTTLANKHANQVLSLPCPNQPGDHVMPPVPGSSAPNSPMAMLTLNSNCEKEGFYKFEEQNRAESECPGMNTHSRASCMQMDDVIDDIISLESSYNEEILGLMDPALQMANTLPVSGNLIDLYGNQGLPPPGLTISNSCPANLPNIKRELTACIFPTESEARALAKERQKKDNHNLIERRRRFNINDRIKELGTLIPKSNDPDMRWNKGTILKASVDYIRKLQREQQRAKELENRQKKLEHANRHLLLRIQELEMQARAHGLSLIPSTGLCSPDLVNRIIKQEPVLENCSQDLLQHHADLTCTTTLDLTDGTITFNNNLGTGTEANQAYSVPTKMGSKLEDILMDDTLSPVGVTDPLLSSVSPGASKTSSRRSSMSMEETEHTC

[8] = Shn3 3'UTR reporter inhibitors, dose response, cell-based, Clone20 osteoblasts, firefly luciferase, cherry-picked (AID 624132); assay type: functional;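 note: firefly luciferase luminescence from reporter carrying the Shn3 3'UTR in osteoblasts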
[9] = HepG2 cell cytotoxicity, dose response, cytotoxicity control for Shn3 inhibitor project, CellTiter-Glo, cherry-picked (AID 624134); assay type: functional, cell-based
[10] = control 3'UTR Renilla luciferase suppression, dose response, counter-screen for Shn3 inhibitor project, cell-based, Clone20-Shn3RL, cherry-picked (AID 624133); assay type: functional
HEK293 [11] = assay: cells; details: Homo sapiens
HEK293 [12] = assay: cells; details: Homo sapiens; remark: listed apart in the source
Estrogen receptor = molecular target: T3, Estrogen receptor (Homo sapiens, UniProt P03372); assay: ERα–SRC-3 coactivator interaction inhibitors, confirmation, orthogonal assay, biochemical, ELISA, streptavidin-HRP readout (AID 1079)
T3 sequence (P03372 whole entry): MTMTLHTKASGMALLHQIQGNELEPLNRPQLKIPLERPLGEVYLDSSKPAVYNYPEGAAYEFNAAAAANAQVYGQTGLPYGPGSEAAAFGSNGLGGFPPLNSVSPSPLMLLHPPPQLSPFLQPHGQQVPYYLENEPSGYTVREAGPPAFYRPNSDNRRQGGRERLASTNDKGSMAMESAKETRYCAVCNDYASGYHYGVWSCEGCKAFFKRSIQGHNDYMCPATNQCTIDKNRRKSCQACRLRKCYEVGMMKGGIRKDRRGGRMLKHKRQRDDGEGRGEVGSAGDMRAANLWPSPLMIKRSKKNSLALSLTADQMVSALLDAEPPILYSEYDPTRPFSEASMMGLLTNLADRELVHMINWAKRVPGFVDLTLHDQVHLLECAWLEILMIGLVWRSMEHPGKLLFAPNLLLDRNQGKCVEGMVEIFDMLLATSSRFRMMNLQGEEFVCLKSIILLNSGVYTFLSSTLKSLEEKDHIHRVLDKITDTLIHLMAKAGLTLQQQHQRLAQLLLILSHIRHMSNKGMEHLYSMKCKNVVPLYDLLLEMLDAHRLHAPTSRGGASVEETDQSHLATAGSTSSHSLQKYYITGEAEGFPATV

[13] = Luminescence Cell-Based Dose Response to Identify Activators of 5'UTR Stem-Loop Driven Prion Protein mRNA Translation in H4-C Neuroglioblastoma Cells. [Related pubchem assays: 1829 (Project Summary), 1814 (Primary HTS)]; assay type: functional
[14] = Luminescence Cell-Based Dose Confirmation HTS to Identify Activators of 5'UTR Stem-Loop Driven Alpha-Synuclein mRNA Translation in H4 Neuroglioblastoma Cells. [Related pubchem assays: 1829 (Project Summary), 1814 (Primary HTS)]; assay type: functional
[15] = Luminescence Cell-Based Dose Response HTS to Identify Activators of Luciferase Translation or Activity in H4 […] Cells. [Related pubchem assays: 1829 (Project Summary), 1814 (Primary HTS)]; assay type: functional
[16] = test system: Streptococcus sp. 'group A'; assay: growth inhibition of control SK(-) GAS strain, dose response, counter-screen for streptokinase expression inhibitor project, luminescence, kanamycin, BacTiterGlo, confirmation (AID 1900); assay type: functional, organism-based
H4 = assay: Luminescence Cell-Based Dose Response HTS to Identify Activators of 5'UTR Stem-Loop Driven Prion Protein mRNA Translation in H4 Neuroglioblastoma Cells. [Related pubchem assays: 1829 (Project Summary), 1814 (Primary HTS)]; assay type: functional; details: Homo sapiens
Streptokinase A = molecular target: T4, Streptokinase A (Streptococcus pyogenes serotype M1, UniProt P10520); assay: S. pyogenes streptokinase expression inhibitors, potency, dose response, plasminogen activation absorbance, OD405 (AID 1914); assay type: functional, Streptococcus pyogenes M1 GAS;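 note: secreted streptokinase activity via plasminogen activation per viability signal from cell pellet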
T4 sequence (P10520 whole entry): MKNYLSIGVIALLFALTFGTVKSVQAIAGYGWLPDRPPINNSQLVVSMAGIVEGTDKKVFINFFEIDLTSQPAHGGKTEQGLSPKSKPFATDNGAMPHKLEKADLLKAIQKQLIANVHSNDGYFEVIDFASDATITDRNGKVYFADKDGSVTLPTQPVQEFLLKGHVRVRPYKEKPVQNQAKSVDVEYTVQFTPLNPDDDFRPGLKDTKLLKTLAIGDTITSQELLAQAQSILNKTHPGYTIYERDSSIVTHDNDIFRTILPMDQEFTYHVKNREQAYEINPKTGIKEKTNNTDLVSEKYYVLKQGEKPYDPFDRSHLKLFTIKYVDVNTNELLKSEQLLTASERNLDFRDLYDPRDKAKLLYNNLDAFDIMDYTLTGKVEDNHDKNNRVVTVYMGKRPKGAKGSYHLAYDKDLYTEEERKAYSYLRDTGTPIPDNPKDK

[17] = Luminescence Cell-Based Dose Response to Identify Activators of Luciferase Translation or Activity in H4-C Neuroglioblastoma Cells. [Related pubchem assays: 1829 (Project Summary), 1814 (Primary HTS)]; assay type: functional
NS3 = NS3 (Hepatitis C virus, UniProt A3EZJ3); assay: PubChem AID 2173; design: species or system Hepacivirus hominis
NS3, sequence (A3EZJ3 whole entry): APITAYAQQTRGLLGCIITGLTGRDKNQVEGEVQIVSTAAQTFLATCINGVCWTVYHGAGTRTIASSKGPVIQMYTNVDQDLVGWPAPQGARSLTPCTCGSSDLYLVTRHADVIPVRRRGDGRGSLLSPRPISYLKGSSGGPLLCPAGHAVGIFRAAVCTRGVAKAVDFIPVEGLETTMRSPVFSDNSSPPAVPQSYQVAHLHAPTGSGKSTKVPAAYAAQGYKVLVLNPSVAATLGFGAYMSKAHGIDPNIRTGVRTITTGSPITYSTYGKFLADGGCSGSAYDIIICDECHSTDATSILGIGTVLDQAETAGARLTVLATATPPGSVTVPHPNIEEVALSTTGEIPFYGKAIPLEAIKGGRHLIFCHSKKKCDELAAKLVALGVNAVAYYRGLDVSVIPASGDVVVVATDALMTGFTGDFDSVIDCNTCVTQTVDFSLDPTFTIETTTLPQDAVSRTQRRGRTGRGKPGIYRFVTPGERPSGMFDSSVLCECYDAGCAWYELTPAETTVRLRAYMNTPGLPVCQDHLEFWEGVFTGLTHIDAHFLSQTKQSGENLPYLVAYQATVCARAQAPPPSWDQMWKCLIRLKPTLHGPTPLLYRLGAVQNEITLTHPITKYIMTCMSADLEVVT

[18] = Luminescence Cell-Based Dose Confirmation to Identify Activators of 5'UTR Stem-Loop Driven Alpha-Synuclein mRNA Translation in H4 Neuroglioblastoma Cells. [Related pubchem assays: 1829 (Project Summary), 1814 (Primary HTS)]; assay type: functional
Streptococcus = assay: Group A Streptococcus viability loss, dose response, counter-screen for streptokinase expression inhibitor project, luminescence, BacTiterGlo (AID 1915); assay type: functional, organism-based;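 note: potency for reduction of bacterial viability or growth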
INS1 = assay: beta cell apoptosis inhibitors, cytokine rescue, dose response, luminescence, retest (AID 449756); assay type: functional, cell-based; details: Rattus norvegicus, INS1;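 note: cell death triggered by IL-1 beta plus TNF-alpha plus IFN-gamma mixture; protective hits raise ATP signal compared with cytokine alone wells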
[19] = molecular target: T5, RNA-binding protein pos-1 (Caenorhabditis elegans, UniProt G5EF15); assay: inhibitors of POS-1/mex-3 RNA binding, dose response, biochemical, fluorescence polarization (AID 1964);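 note: purified POS-1 fused to maltose binding protein made in E. coli; potency of compounds blocking POS-1 binding to fluorescent RNA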
T5 sequence (G5EF15 whole entry): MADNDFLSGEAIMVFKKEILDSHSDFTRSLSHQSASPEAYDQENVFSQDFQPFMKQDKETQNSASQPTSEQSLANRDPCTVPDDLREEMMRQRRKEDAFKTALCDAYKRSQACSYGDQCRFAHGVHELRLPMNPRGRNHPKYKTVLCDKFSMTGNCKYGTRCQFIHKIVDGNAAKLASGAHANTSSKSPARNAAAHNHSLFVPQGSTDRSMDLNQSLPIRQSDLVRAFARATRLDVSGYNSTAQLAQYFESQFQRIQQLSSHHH

[20] = molecular target: T6, Zinc finger protein mex-5 (Caenorhabditis elegans, UniProt Q9XUB2); assay: MEX-5/TCR-2 RNA interaction inhibitors, dose response, biochemical, C. elegans, fluorescence polarization (AID 1960)
T6 sequence (Q9XUB2 whole entry): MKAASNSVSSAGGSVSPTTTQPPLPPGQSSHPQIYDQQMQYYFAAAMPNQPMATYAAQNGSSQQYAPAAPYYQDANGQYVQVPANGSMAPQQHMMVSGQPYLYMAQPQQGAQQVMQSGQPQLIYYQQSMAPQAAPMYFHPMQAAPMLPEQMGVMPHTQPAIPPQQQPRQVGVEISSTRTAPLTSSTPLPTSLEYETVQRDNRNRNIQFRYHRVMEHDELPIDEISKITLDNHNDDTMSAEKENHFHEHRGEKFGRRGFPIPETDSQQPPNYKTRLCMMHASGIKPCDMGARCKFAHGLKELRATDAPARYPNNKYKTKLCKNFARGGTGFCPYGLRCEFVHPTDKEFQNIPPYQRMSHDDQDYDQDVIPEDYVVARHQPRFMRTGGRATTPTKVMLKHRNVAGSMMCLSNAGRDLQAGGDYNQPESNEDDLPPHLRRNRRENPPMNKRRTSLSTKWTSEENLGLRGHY

[21] = molecular target: T7, Bifunctional protein GlmU (Mycobacterium tuberculosis, UniProt P9WMN3); assay: Inhibitors of Mycobacterial Glucosamine-1-phosphate acetyl transferase (GlmU). Secondary screen.; design: species or system Mycobacterium tuberculosis H37Rv
T7 sequence (P9WMN3 whole entry): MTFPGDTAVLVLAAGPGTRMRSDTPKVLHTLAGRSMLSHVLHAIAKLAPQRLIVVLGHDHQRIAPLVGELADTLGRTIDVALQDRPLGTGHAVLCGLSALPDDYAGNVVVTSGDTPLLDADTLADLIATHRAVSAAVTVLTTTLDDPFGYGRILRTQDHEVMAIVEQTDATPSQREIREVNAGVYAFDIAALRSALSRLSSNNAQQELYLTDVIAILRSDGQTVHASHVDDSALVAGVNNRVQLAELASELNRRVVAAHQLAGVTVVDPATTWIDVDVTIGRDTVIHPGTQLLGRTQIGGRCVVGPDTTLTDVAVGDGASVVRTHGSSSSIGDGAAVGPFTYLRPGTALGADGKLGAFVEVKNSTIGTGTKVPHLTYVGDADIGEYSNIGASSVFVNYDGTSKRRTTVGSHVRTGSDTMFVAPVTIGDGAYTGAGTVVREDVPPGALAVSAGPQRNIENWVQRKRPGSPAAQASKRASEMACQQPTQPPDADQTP

[22] = inhibitors of Bluetongue virus cytopathic effect, confirmation, arbovirus, BSR cells (AID 1250); assay type: functional;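 note: protection from viral cytopathic effect measured as cell viability by ATP luminescence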
[23] = molecular target: Heat shock protein HSP 90-alpha (Homo sapiens, UniProt P07900); assay type: functional, organism-based

Genome polyprotein, sequence (Q2Q167 whole entry): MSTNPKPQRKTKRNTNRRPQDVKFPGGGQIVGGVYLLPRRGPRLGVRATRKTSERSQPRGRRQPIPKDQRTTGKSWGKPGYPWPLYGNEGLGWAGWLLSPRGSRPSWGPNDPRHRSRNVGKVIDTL

SMILES: COc1cccc(/C=N/Nc2[nH]cnc3c4cc(C)ccc4nc2-3)c1OC
- IC50 (Genome polyprotein): > 49.8 µM (not active)
- IC50 [1]: 24.9 µM (not active)
- IC50 (Insulin-degrading enzyme): 0.571 µM (active)
- IC50 [2]: 3.73 µM (active)
- IC50 [3]: > 66.6 µM (inactive)
- IC50 [4]: 2.38 µM (active)

SMILES: CCCC(=O)N1CCN(c2ccc(NC(=O)c3ccc([N+](=O)[O-])o3)cc2Cl)CC1
- CC50 (HeLa): 4.19 µM (active)
- EC50 [5]: 2.36 µM (active)
- EC50 [6]: 2.96 µM (active)
- AC50 [7]: 7.65 µM (active)
- AC50 [8]: 0.7 µM (active)
- AC50 [9]: 36.6 µM (active)
- AC50 [10]: 8.17 µM (active)
- EC50 (HEK293 [11]): > 59.6 µM (inactive)
- EC50 (HEK293 [12]): > 59.6 µM (inactive)

SMILES: O=C(CCCCCn1c(=S)[nH]c2ccccc2c1=O)N1CCN(c2ccncc2)CC1
- IC50 (Estrogen receptor): 0.03 µM (not active)

SMILES: NC(=S)N/N=C/c1ccc(C23CC4CC(CC(C4)C2)C3)cc1
- EC50 [13]: 1.31 µM (active)
- EC50 [14]: < 0.1 µM (active)
- EC50 [15]: < 0.1 µM (active)
- EC50 [16]: 2.4 µM (active)
- EC50 (H4): 96.8 µM (active)
- EC50 (Streptokinase A): 13.4 µM (active)
- EC50 [17]: 0.415 µM (active)
- IC50 (NS3): 5.41 µM (active)
- EC50 [5]: 0.387 µM (active)
- EC50 [6]: 7.3 µM (active)
- EC50 [18]: 0.324 µM (active)
- EC50 (Streptococcus): > 50 µM (not active)
- AC50 (INS1): 5.3 µM (active)

SMILES: Cc1cc(/C=c2\sc3nc4ccccc4n3c2=O)c(C)n1-c1ccc(C(=O)O)cc1
- EC50 [19]: > 300 µM (not active)
- EC50 [20]: > 300 µM (not active)
- IC50 [21]: 171 µM (active)
- IC50 [22]: 25.8 µM (active)
- AC50 [23]: 24.5 µM (active)
